According to patent US7582627B2, “3-aminoquinazolin-2,4-dione antibacterial agents” (Warner-Lambert Company, priority 2000, dated 2009):
Values after ≈ are worked out from the molar mass of the structure shown. Counter-ions that a name gives are not always drawn. Like-named read-outs stand apart in the source and are kept apart here. One block for each molecule: values may come before it.

Assays:
[1] = system: E. coli Tol C; assay: Antibacterial assay, microtitration MIC; type: cell-based; details: for MIC: Escherichia coli, read-out: Minimum Inhibitory Concentrations E. coli Tol C
Description: (§1) The compounds of the present invention are tested against an assortment of Gram negative and Gram positive organisms using standard microtitration techniques (Cohen et al., Antimicrob. Agents Chemother., 1985; 28:766; Heifetz et al., Antimicrob. Agents Chemother., 1974; 6:124). The results of the evaluation of representative 3-aminoquinazolin-2,4-diones of Formula I are shown in Table 2 and compared to two 3-hydroxyquinazolin-2,4-diones.

[2] = system: S. pyogenes C203; assay: Antibacterial assay, microtitration MIC; type: cell-based; details: for MIC: Streptococcus pyogenes
Description: as §1

[3] = system: E. coli MC4100; assay: Antibacterial assay, microtitration MIC; type: cell-based; details: for MIC: Escherichia coli
Description: as §1

[4] = system: E. coli B90; assay: Antibacterial assay, microtitration MIC; type: cell-based; details: for MIC: Escherichia coli
Description: as §1

[5] = system: S. aureus 29213; assay: Antibacterial assay, microtitration MIC; type: cell-based
Description: as §1

[6] = system: E. faecalis RB1; assay: Antibacterial assay, microtitration MIC; type: cell-based; details: for MIC: Enterococcus faecalis
Description: as §1

[7] = molecular target: T1, E. coli gyrase (Escherichia coli, UniProt P0AES4+P0AES6); assay: DNA gyrase supercoiling inhibition assay; type: biochemical
T1 construct: purchased Lucent, Ltd., Leicester, UK
Description: The effects of invention compounds on the activity of DNA gyrase is determined in the supercoiling inhibition assay, following reaction conditions recommended by the enzyme supplier (Lucent, Ltd., Leicester, UK). Reactions are performed in buffer G (35 mM Tris-HCl (pH 7.5), 24 mM KCl, 4 mM MgCl2, 2 mM DTT, 1.8 mM spermidine, 1 mM ATP, 0.1 mg/mL bovine serum albumin). Relaxed plasmid pBR322 (0.25 μg, Lucent, Ltd., Leicester, UK) is reacted with 1 U E. coli gyrase (Lucent, Ltd., Leicester, UK), in the absence or presence of test compounds, for 30 minutes at 37° C. Reactions are stopped by the addition of SDS and proteinase K to respective final concentrations of 1% and 0.5 mg/mL. After an additional 30 minutes at 37° C., one-tenth volume of 10× loading buffer (0.3% bromophenol blue, 16% Ficoll, 10 mM Na2HPO4) is added, and reactions are loaded onto agarose gels and electrophoresed. The concentration of representative invention compounds of Formula I inhibiting 50% of the supercoiling activity of DNA gyrase is given as an IC50 and recorded in Table 2.

[8] = supercoiling of relaxed pBR322, 30 minutes at 37° C., read-out: E. coli gyrase IC50
[9] = C203, read-out: Minimum Inhibitory Concentrations S. pyogenes C203
[10] = MC4100, read-out: Minimum Inhibitory Concentrations E. coli MC4100
[11] = B90, read-out: Minimum Inhibitory Concentrations E. coli B90
[12] = Staphylococcus aureus, 29213, read-out: Minimum Inhibitory Concentrations S. aureus 29213
[13] = RB1, read-out: Minimum Inhibitory Concentrations E. faecalis RB1
[14] = C203, Gram positive, read-out: Minimum Inhibitory Concentrations S. pyogenes C203
[15] = MC4100, Gram negative, read-out: Minimum Inhibitory Concentrations E. coli MC4100
[16] = B90, Gram negative, read-out: Minimum Inhibitory Concentrations E. coli B90
[17] = Staphylococcus aureus, 29213, Gram positive, read-out: Minimum Inhibitory Concentrations S. aureus 29213
[18] = RB1, Gram positive, read-out: Minimum Inhibitory Concentrations E. faecalis RB1

Structure (SMILES): CC1(CN)CCN(c2c(F)cc3c(=O)n(N)c(=O)n(C4CC4)c3c2Cl)C1 (centres unmarked) (as salt: hydrochloride) [Compound 3, 3-Amino-7-[3-(aminomethyl)-3-methylpyrrolidin-1-yl]-8-chloro-1-cyclopropyl-6-fluoro-1H-quinazoline-2,4-dione hydrochloride]
melting point: 166 to 168 °C

Structure (SMILES): N[C@H]1CCN(c2c(F)c(F)c3c(=O)n(N)c(=O)n(C4CC4)c3c2F)C1 (as salt: hydrochloride) [Compound 9, 3-Amino-7-((S)-3-aminopyrrolidin-1-yl)-1-cyclopropyl-5,6,8-trifluoro-1H-quinazoline-2,4-dione hydrochloride]
melting point: 271 °C (dec.)

Structure (SMILES): Nc1c(F)c(N2CC[C@H](N)C2)c(F)c2c1c(=O)n(N)c(=O)n2C1CC1 (as salt: hydrochloride) [Compound 11, 7-((S)-3-Aminopyrrolidin-1-yl)-1-cyclopropyl-3,5-diamino-6,8-difluoro-1H-quinazoline-2,4-dione hydrochloride]
melting point: 215 to 218 °C (dec.)

Structure (SMILES): COc1c(N2C[C@@H](CN)[C@H](C)C2)c(F)cc2c(=O)n(N)c(=O)n(C3CC3)c12.Cl (relative stereo)
melting point: 189 °C

Structure (SMILES): Cc1c(N2C[C@@H](CN)[C@H](C)C2)c(F)cc2c(=O)n(N)c(=O)n(C3CC3)c12.Cl (relative stereo)
melting point: 220 °C

Structure (SMILES): COc1c(N2C[C@@H](CN)[C@@H](F)C2)c(F)cc2c(=O)n(N)c(=O)n(C3CC3)c12.Cl (relative stereo)
melting point: 169 to 179 °C

Structure (SMILES): COc1c(N2C[C@@H](CN)[C@H](F)C2)c(F)cc2c(=O)n(N)c(=O)n(C3CC3)c12.Cl (relative stereo)
melting point: 144 to 147 °C

Structure (SMILES): Cl.NC[C@@H]1CN(c2nc3c(cc2F)c(=O)n(N)c(=O)n3C2CC2)C[C@H]1C(F)(F)F (relative stereo)
melting point: 214 to 216 °C

Structure (SMILES): Cl.N[C@@H]1CN(c2c(F)cc3c(=O)n(N)c(=O)n(C4CC4)c3c2Cl)C[C@H]1c1ccccc1 (relative stereo)
melting point: 174 to 175 °C

Structure (SMILES): Cl.N[C@@H]1CN(c2c(F)cc3c(=O)n(N)c(=O)n(C4CC4)c3c2Cl)C[C@H]1c1ccc(O)cc1 (relative stereo)
melting point: > 200 °C

Structure (SMILES): COc1c(N2C[C@@H](CN)[C@H](C(F)(F)F)C2)c(F)cc2c(=O)n(N)c(=O)n(C3CC3)c12.Cl (relative stereo)
melting point: 205 to 207 °C

Structure (SMILES): Cl.N[C@H]1CCN(c2c(F)cc3c(=O)n(N)c(=O)n(NC4CC4)c3c2F)C1 [Compound 7, 3-Amino-7-[(S)-3-aminopyrrolidin-1-yl]-1-cyclopropylamino-6,8-difluoro-1H-quinazoline-2,4-dione hydrochloride]
Minimum Inhibitory Concentrations E. coli Tol C ([1]; Gram negative): 0.25 µg/mL
Minimum Inhibitory Concentrations S. pyogenes C203 ([2]; Gram positive): 4.0 µg/mL
Minimum Inhibitory Concentrations E. coli MC4100 ([3]; Gram negative): 2.0 µg/mL
Minimum Inhibitory Concentrations E. coli B90 ([4]; Gram negative): 0.5 µg/mL
Minimum Inhibitory Concentrations S. aureus 29213 ([5]; Gram positive): 8.0 µg/mL
Minimum Inhibitory Concentrations E. faecalis RB1 ([6]; Gram positive): 8.0 µg/mL
IC50 [7, 8]: 1.3 µM

Structure (SMILES): N[C@H]1CCN(c2c(F)c(F)c3c(=O)n(N)c(=O)n(C4CC4)c3c2F)C1 [Compound 9, 3-Amino-7-((S)-3-aminopyrrolidin-1-yl)-1-cyclopropyl-5,6,8-trifluoro-1H-quinazoline-2,4-dione hydrochloride]
MIC [1]: 0.5 µg/mL
MIC [2, 9]: 16 µg/mL
MIC [3, 10]: 2 µg/mL
MIC [4, 11]: 1 µg/mL
MIC [5, 12]: 16 µg/mL
MIC [6, 13]: 32 µg/mL
IC50 [7, 8]: 3 µM

Structure (SMILES): Nc1c(F)c(N2CC[C@H](N)C2)c(F)c2c1c(=O)n(N)c(=O)n2C1CC1 [Compound 11, 7-((S)-3-Aminopyrrolidin-1-yl)-1-cyclopropyl-3,5-diamino-6,8-difluoro-1H-quinazoline-2,4-dione hydrochloride]
MIC [1]: 0.25 µg/mL
MIC [2, 9]: 4 µg/mL
MIC [3, 10]: 2 µg/mL
MIC [4, 11]: 0.5 µg/mL
MIC [5, 12]: 8 µg/mL
MIC [6, 13]: 8 µg/mL
IC50 [7, 8]: 11 µM

Structure (SMILES): Cl.N[C@@H]1CN(c2c(F)cc3c(=O)n(N)c(=O)n(C4CC4)c3c2Cl)CC12CC2 [Compound 14, 3-Amino-7-((S)-7-amino-5-azaspiro[2.4]hept-5-yl)-8-chloro-1-cyclopropyl-6-fluoro-1H-quinazoline-2,4-dione hydrochloride]
MIC [1]: 0.5 µg/mL
MIC [2, 14]: 4 µg/mL
MIC [3, 15]: 4 µg/mL
MIC [4, 16]: 0.25 µg/mL
MIC [5, 17]: 8 µg/mL
MIC [6, 18]: 8 µg/mL
IC50 [7]: 2.4 µM
melting point: 177 to 179 °C

Structure (SMILES): N[C@@H]1[C@H]2CN(c3cc4c(cc3F)c(=O)n(O)c(=O)n4C3CC3)C[C@@H]12 [drawing 284, reference compound]
MIC [1]: 0.25 µg/mL (≈ 0.752 µM)
MIC [2, 14]: 2 µg/mL (≈ 6.02 µM)
MIC [3, 15]: 1 µg/mL (≈ 3.01 µM)
MIC [4, 16]: 0.25 µg/mL (≈ 0.752 µM)
MIC [5, 17]: 4 µg/mL (≈ 12 µM)
MIC [6, 18]: 4 µg/mL (≈ 12 µM)
IC50 [7, 8]: 0.9 µM

Structure (SMILES): O=c1c2cc(F)c(N3C[C@@H]4CCCN[C@@H]4C3)cc2n(C2CC2)c(=O)n1O [reference compound]
MIC [1]: 1 µg/mL (≈ 2.77 µM)
MIC [2, 14]: 32 µg/mL (≈ 88.8 µM)
MIC [3, 15]: 8 µg/mL (≈ 22.2 µM)
MIC [4, 16]: 2 µg/mL (≈ 5.55 µM)
MIC [5, 17]: 32 µg/mL (≈ 88.8 µM)
MIC [6, 18]: 64 µg/mL (≈ 178 µM)
IC50 [7, 8]: 5 µM

Now from value to molecule:

melting point: 118 to 120 °C
Structure (SMILES): CN[C@H]1CCN(c2c(F)cc3c(=O)n(N)c(=O)n(C4CC4)c3c2Cl)C1 (as salt: hydrochloride) [Compound 5, 3-Amino-7-((S)-3-N-methylaminopyrrolidin-1-yl)-8-chloro-1-cyclopropyl-6-fluoro-1H-quinazoline-2,4-dione hydrochloride]

melting point: 151 °C
Structure (SMILES): CC(C)n1c(=O)n(N)c(=O)c2cc(F)c(N3CCC(N)C3)c(Cl)c21 (centres unmarked) (as salt: trifluoroacetate)

melting point: 215 to 217 °C
Structure (SMILES): C[C@@H]1CN(c2c(F)cc3c(=O)n(N)c(=O)n(C4CC4)c3c2Cl)C[C@H]1CN.Cl (relative stereo)

melting point: 209 °C
Structure (SMILES): COc1c(N2C[C@@H](C)[C@H](N)C2)c(F)cc2c(=O)n(N)c(=O)n(C3CC3)c12.Cl (relative stereo)

melting point: 181 to 183 °C
Structure (SMILES): Cl.N[C@@H]1CN(c2c(F)cc3c(=O)n(N)c(=O)n(C4CC4)c3c2Cl)C[C@H]1C(F)(F)F (relative stereo)

melting point: 141 to 144 °C
Structure (SMILES): NC(=O)C1CCCN(c2c(F)cc3c(=O)n(N)c(=O)n(C4CC4)c3c2Cl)C1 (centres unmarked) [Compound 58, 1-(3-Amino-8-chloro-1-cyclopropyl-6-fluoro-2,4-dioxo-1,2,3,4-tetrahydroquinazolin-7-yl)piperidine-3-carboxylic acid amide]

melting point: 147 to 149 °C
Structure (SMILES): Nn1c(=O)c2cc(F)c(N3CCC4(CCNC4)C3)c(Cl)c2n(C2CC2)c1=O (centres unmarked) [Compound 62, 3-Amino-8-chloro-1-cyclopropyl-7-(2,7-diazaspiro[4.4]non-2-yl)-6-fluoro-1H-quinazoline-2,4-dione]

melting point: 147 to 149 °C
Structure (SMILES): Nn1c(=O)c2cc(F)c(N3CCC(=NO)C3)c(Cl)c2n(C2CC2)c1=O [Compound 65, 3-Amino-8-chloro-1-cyclopropyl-6-fluoro-7-(3-hydroxyimino-pyrrolidin-1-yl)-1H-quinazoline-2,4-dione]

melting point: 109 to 112 °C
Structure (SMILES): CS(=O)(=O)NCC1CCN(c2c(F)cc3c(=O)n(N)c(=O)n(C4CC4)c3c2Cl)C1 (centres unmarked) [Compound 74, N-[1-(3-Amino-8-chloro-1-cyclopropyl-6-fluoro-2,4-dioxo-1,2,3,4-tetrahydroquinazolin-7-yl)pyrrolidin-3-ylmethyl]methanesulfonamide]

melting point: 194 to 196 °C
Structure (SMILES): Cc1c(N2CC[C@H]([C@@H](C)N)C2)c(F)cc2c(=O)n(N)c(=O)n(C3CC3)c12.Cl [Compound 75]

melting point: 228 to 230 °C
Structure (SMILES): COc1c(N2CC[C@H]([C@@H](C)N)C2)c(F)cc2c(=O)n(N)c(=O)n(C3CC3)c12.Cl [Compound 133]
